Publication PMC6912361, “Systemic Toxicity Reported for CDK8/19 Inhibitors CCT251921 and MSC2530818 Is Not Due to Target Inhibition” (Cells, 2019)
Where two headings read alike, the source gives them in different places. One block for each compound: values may come before it.

Tests used:
CDK8/19 [1] = assay: Cell-based QPCR assay of CDK8/19-dependent gene expression, HEK293 parental (WT) cells; set-up: species or system human
Method: All cells were cultured in DMEM (high-glucose) media supplemented with 10% fetal bovine serum (FBS) and Penicillin-Streptomycin-Glutamine (1×) at 37 °C with 5% CO2 and routinely confirmed to be free of mycoplasma.
(§3) Total RNA was extracted using RNAeasy Mini Kit (Qiagen, Germantown, MD, USA) and 1 µg of total RNA was used to generate cDNA using iScript cDNA synthesis kit (Bio-Rad Laboratories, Hercules, CA, USA). Gene expression was quantified using iTaq Universal SYBR green super mix using CFX384 Real-Time System (Bio-Rad).
The IC50 values for different inhibitors in inhibiting CDK8/19-dependent gene expression were calculated using a three-parameter least square (ordinary) fitting method with GraphPad Prism 7.0 (GraphPad Software, San Diego, CA, USA).
(§4) Cells were pre-treated with different concentrations of CDK8/19 inhibitors for 1 h and then 10 ng/mL TNFα, an inducer of transcription factor NFκB, which is potentiated by CDK8/19 [5], was added for 2 h before RNA extraction. QPCR was carried out to quantify CDK8/19-regulated expression of NFκB-inducible genes CXCL1 and CXCL8 and the basal expression of MYC.

CDK19 [2] = molecular target: T1, CDK19 (Homo sapiens, UniProt Q9BWU1); assay: Cell-based QPCR assay of CDK8/19-dependent gene expression, HEK293 CDK8 single-knockout (8KO) cells; set-up: CDK8 single-knockout (8KO); endogenous in cells; host or cells: HEK293 CDK8 knockout (8KO); details: HEK293 8KO, 1 h pre-treatment, then 10 ng/mL TNFα 2 h
Target sequence in this assay (Q9BWU1 whole entry): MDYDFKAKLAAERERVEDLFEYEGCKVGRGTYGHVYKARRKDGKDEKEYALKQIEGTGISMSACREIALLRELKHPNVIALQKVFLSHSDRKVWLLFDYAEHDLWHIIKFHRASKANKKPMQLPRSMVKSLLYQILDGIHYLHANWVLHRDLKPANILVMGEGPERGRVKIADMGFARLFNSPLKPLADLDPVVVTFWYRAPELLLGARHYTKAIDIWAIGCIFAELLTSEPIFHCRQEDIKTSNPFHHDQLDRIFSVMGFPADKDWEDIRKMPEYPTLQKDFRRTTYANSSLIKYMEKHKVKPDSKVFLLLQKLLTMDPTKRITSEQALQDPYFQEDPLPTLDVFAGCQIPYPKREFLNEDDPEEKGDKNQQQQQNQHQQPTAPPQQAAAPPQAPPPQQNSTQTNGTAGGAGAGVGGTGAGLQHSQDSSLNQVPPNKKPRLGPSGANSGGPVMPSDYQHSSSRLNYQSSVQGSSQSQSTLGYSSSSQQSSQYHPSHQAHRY
Target sequence in this assay (P24863 whole entry partner): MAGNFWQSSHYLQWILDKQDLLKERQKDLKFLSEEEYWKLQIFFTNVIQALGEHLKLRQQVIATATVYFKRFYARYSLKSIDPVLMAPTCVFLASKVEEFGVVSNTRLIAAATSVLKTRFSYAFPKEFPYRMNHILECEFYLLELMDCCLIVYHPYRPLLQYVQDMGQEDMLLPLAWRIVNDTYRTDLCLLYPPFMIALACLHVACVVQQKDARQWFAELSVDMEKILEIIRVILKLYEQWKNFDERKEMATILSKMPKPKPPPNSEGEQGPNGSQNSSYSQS
Method: (§5) CDK8/CDK19 single knockout and double knockout derivatives of human embryonic kidney (HEK) 293 cells (ATCC CRL-1573) were generated as previously described [18]. All cells were cultured in DMEM (high-glucose) media supplemented with 10% fetal bovine serum (FBS) and Penicillin-Streptomycin-Glutamine (1×) at 37 °C with 5% CO2 and routinely confirmed to be free of mycoplasma.
as §3
(§6) The IC50 values for different inhibitors in inhibiting CDK8/19-dependent gene expression were calculated using a three-parameter least square (ordinary) fitting method with GraphPad Prism 7.0 (GraphPad Software, San Diego, CA, USA). The Kruskal–Wallis non-parametric ANOVA was used to compare gene expression levels under no-inhibitor conditions between wild-type cells and knockout derivatives (8KO, 19KO and dKO) with GraphPad Prism 7.0.
as §4

CDK8 = CDK8 (Homo sapiens, UniProt P49336); assay: Cell-based QPCR assay of CDK8/19-dependent gene expression, HEK293 CDK19 single-knockout (19KO) cells; set-up: CDK19 single-knockout (19KO); endogenous in cells; host or cells: HEK293 CDK19 knockout (19KO); details: HEK293 19KO, 1 h pre-treatment, then 10 ng/mL TNFα 2 h
Sequence of CDK8 (P49336 whole entry): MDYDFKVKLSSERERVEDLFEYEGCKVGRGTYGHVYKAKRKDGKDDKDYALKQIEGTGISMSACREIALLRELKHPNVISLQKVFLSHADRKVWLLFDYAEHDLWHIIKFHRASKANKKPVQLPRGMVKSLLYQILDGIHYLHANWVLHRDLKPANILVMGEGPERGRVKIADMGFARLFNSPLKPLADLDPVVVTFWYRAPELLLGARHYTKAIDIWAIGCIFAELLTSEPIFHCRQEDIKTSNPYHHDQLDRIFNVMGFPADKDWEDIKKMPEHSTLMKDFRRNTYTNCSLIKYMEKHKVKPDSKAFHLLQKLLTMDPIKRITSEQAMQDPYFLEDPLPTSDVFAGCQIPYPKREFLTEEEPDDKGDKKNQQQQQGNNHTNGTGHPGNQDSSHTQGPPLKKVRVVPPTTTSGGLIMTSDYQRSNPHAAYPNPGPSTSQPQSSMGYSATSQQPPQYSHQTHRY
Sequence of CDK8 (P24863 whole entry partner): as the sequence (P24863 whole entry partner) above
Method: as §5, §3, §6, §4

[3] = tested on: STAT1 S727 phosphorylation; assay: Western blot of STAT1 S727 phosphorylation in 293-dKO cells; assay type: cell-based, human; details: for Basal STAT1 S727 phosphorylation in dKO cells, effect of cytokines: 20 ng/mL EGF, 40 ng/mL TNFα, 1 h after 24 h serum starvation; for CDK8/19-independent STAT1 S727 phosphorylation in dKO 293 cells, effect of cytotoxic drugs: 3 h, 50 μM etoposide, 50 nM Taxol
Method: Cells were cultured in 60-mm dishes and treated under different conditions before being lysed in RIPA lysis buffer with protease/phosphatase inhibitor cocktail. The protein concentration of extracts was determined using the DC protein assay (Bio-Rad Laboratories). Protein samples (50 μg) were resolved on 4–12% Express-Plus PAGE gels in Tris-MOPS (SDS) running buffer (GenScript, Piscataway, NJ, USA), transferred to PVDF membranes and incubated at 4 °C overnight with primary antibodies STAT1 (sc-592, Santa Cruz Biotechnology, Dallas, TX, USA) and pSTAT1-Ser727 (#8826, Cell Signaling Technology, Danvers, MA, USA) followed by anti-rabbit (NA934, GE Healthcare, Chicago, IL, USA) secondary antibodies. Bands were visualized with Western Lighting Plus ECL detection reagent (Perkin Elmer, Waltham, MA, USA) using ChemiDoc Touch™ (Bio-Rad). Images were analyzed using ImageLab (Bio-Rad) and ImageJ (version 1.52p) software for protein signal quantification.

CDK8/19 [4] = assay: Wash-off study: stability of inhibition of CDK8/19-dependent gene expression in 293 cells; assay type: cell-based, human; details: 30 nM, 3 h, then drug-free media
Text: We then asked if such toxicity could be associated with the stability of CDK8/19 inhibition. […] Then the drug-containing media were removed, cells were washed twice with PBS and cultured in fresh drug-free media for different periods of time before being lysed for RNA extraction and QPCR analysis of mRNA expression of MYC, JUN and ADAMTS1.

[5] = tested on: non-dechorionated embryos of zebrafish TU strain; assay: Zebrafish toxicity assay, non-dechorionated embryos (TU strain); assay type: in vivo; details: 2 μM; TU strain
Method: The toxicity studies in non-dechorionated embryos of zebrafish TU strain were approved by the Institutional Animal Care and Use Committee of the University of South Carolina. The studies were conducted in sterile 24-well plates with one 24 hpf embryo in each well in a 1 mL volume of egg water. For each plate, 6 wells were treated with vehicle control and the other 18 wells (i.e., biological replicates) were treated with different CDK8/19 inhibitors at different concentrations. […] All the data from the plates with at least five healthy vehicle-treated embryos on day 5 were compiled together for final data analysis.

rats = details: cited from earlier work
dogs = details: cited from earlier work
PIKFYVE [6] = molecular target: T2, PIKFYVE (Homo sapiens, UniProt Q9Y2I7); assay: Phase-contrast microscopy for intracellular large vesicular structures (PIKFYVE inhibition); assay type: cell-based; set-up: endogenous in cells; host or cells: HEK293-WT and HEK293-dKO; details: 3 h; both WT and dKO 293 cells
T2 sequence (Q9Y2I7 whole entry): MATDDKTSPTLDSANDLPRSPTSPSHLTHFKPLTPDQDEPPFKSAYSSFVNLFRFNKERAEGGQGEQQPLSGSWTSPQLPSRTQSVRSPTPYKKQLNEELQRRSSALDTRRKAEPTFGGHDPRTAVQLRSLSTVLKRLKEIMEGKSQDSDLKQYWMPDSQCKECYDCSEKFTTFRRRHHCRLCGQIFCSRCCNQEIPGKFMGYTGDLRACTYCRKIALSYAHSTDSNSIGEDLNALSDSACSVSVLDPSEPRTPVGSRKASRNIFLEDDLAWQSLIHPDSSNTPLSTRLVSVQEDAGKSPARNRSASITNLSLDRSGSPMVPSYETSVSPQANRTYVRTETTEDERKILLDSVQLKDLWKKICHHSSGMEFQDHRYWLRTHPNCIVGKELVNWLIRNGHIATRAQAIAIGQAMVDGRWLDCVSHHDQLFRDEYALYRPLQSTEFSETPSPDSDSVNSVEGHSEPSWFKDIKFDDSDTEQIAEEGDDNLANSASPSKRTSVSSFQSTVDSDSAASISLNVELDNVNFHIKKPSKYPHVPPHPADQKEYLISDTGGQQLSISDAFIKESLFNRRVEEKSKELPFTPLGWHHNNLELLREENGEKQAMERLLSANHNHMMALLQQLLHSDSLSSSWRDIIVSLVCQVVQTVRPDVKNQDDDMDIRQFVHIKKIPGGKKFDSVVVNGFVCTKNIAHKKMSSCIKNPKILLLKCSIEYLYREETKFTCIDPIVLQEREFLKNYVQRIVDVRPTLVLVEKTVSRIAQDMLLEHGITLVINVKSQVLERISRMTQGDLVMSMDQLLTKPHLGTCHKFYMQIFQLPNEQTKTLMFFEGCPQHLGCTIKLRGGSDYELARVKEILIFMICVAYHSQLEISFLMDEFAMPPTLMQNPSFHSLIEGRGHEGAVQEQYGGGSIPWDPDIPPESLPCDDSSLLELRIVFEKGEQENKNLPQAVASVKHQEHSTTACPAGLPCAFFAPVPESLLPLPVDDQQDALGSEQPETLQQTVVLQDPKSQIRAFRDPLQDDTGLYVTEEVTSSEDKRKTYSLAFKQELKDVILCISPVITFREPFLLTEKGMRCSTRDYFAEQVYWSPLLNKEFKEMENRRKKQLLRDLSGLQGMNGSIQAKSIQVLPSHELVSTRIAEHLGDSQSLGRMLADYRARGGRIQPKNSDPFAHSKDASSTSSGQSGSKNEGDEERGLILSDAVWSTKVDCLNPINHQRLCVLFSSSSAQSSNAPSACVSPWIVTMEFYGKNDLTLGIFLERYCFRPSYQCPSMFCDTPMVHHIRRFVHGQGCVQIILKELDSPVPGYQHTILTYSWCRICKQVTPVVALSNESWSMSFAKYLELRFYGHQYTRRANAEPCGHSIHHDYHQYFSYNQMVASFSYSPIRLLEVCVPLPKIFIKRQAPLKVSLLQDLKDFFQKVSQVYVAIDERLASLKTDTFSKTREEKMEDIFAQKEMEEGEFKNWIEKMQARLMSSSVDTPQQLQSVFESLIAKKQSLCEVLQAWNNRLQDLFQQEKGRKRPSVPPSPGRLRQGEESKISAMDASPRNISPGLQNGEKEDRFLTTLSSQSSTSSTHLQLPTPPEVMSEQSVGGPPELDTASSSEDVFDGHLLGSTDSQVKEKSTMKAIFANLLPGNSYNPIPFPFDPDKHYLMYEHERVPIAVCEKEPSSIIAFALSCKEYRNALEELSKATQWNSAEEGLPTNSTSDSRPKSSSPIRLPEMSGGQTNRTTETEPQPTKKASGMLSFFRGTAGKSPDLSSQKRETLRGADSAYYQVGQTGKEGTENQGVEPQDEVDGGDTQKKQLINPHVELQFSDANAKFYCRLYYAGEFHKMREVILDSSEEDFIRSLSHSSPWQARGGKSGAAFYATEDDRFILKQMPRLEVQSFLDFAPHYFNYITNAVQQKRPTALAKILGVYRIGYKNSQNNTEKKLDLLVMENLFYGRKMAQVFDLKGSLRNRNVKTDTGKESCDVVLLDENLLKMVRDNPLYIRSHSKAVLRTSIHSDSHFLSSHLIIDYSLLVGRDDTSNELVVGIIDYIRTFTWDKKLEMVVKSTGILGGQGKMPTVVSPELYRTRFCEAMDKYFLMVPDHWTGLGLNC
Method: To evaluate PIKFYVE kinase inhibition, HEK293-WT and HEK293-dKO cells were treated with CDK8/19 inhibitors at different drug concentrations for 3 h. Phase-contrast microscopy was then used to detect the formation of intracellular large vesicular structures, associated with PIKFYVE inhibition.

STK16 = molecular target: T3, STK16 (Homo sapiens, UniProt O75716); assay: KdELECT Kd determination, STK16; details: 11-point 3-fold serial dilution, duplicate; read-out: Kd for the inhibition of nucleotide binding, STK16
T3 construct: purchased DiscoverX
T3 sequence (O75716 whole entry): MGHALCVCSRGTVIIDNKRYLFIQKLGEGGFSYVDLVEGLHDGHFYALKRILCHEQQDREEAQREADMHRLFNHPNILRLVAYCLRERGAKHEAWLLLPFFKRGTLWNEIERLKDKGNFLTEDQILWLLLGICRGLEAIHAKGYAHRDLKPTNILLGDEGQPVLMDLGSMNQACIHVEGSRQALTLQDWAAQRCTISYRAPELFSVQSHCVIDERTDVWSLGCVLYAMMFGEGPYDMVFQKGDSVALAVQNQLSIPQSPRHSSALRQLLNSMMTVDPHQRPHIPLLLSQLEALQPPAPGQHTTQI
Method: (§1) The screening platform employs an active site-directed competition binding assay to quantitatively measure interactions between test compounds and targeting kinases. […] To determine dissociation constants (Kds) of compounds on different targets, an 11-point 3-fold serial dilution of each test compound was tested in independent duplicate assays.
(§2) This assay has been previously used with many CDK8/19 inhibitors, including cortistatin A and its equipotent analog dCA [20, 21]; 15w.

PIKFYVE [7] = molecular target: T2, PIKFYVE; assay: KdELECT Kd determination, PIKFYVE; set-up: purchased DiscoverX; details: 11-point 3-fold serial dilution, duplicate; read-out: Kd for the inhibition of nucleotide binding, PIKFYVE
Method: as §1, §2

[8] = set-up: method as in PMID 26796641; details: mice, 30 mg/kg/d; cited from earlier work
CDK19 [9] = molecular target: T1, CDK19; assay: KdELECT Kd determination, CDK19; assay type: binding; set-up: purchased DiscoverX
Method: To determine dissociation constants (Kds) of compounds on different targets, an 11-point 3-fold serial dilution of each test compound was tested in independent duplicate assays.
Target sequence in this assay (Q9BWU1 whole entry): as the sequence (Q9BWU1 whole entry) above

JNK1 (MAPK8) = molecular target: T4, JNK1 (MAPK8) (Homo sapiens, UniProt P45983); assay: KdELECT Kd determination, JNK1; details: 11-point 3-fold serial dilution, duplicate; read-out: Kd for the inhibition of nucleotide binding, JNK1 (MAPK8)
T4 construct: purchased DiscoverX
T4 sequence (P45983 whole entry): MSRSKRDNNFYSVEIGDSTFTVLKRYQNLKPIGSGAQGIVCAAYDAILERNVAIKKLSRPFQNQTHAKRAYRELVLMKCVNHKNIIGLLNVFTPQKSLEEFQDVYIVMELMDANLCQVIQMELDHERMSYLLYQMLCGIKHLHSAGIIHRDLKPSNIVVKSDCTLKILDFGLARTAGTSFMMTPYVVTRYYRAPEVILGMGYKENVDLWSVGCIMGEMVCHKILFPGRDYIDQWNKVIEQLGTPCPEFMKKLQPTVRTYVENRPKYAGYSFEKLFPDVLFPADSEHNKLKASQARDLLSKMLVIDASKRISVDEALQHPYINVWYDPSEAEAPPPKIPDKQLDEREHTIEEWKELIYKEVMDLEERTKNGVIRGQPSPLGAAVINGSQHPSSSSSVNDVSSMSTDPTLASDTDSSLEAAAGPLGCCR
Method: as §1, §2

[10] = set-up: method as in PMID 27935476; details: colon cancer and leukemia mouse xenograft models; cited from earlier work
[11] = read-out: IC50, CXCL1 mRNA expression, WT; HEK293 WT; 1 h pre-treatment, then 10 ng/mL TNFα 2 h; QPCR
[12] = read-out: IC50, CXCL8 mRNA expression, WT; HEK293 WT; 1 h pre-treatment, then 10 ng/mL TNFα 2 h; QPCR
[13] = read-out: IC50, MYC mRNA expression, WT; HEK293 WT; 1 h pre-treatment, then 10 ng/mL TNFα 2 h; QPCR
[14] = IC50, CXCL1 mRNA expression, 8KO
[15] = IC50, CXCL8 mRNA expression, 8KO

- IC50 (CDK19 [2]; read-out: IC50, CXCL1 mRNA expression, 8KO): 5.4 nM
- IC50 (CDK19 [2]; read-out: IC50, CXCL8 mRNA expression, 8KO): 5.4 nM
- IC50 (CDK19 [2]; read-out: IC50, MYC mRNA expression, 8KO): 6.2 nM
- IC50 (CDK8; read-out: IC50, CXCL1 mRNA expression, 19KO): 5.2 nM
- IC50 (CDK8; read-out: IC50, CXCL8 mRNA expression, 19KO): 4.2 nM
- IC50 (CDK8; read-out: IC50, MYC mRNA expression, 19KO): 2.5 nM
Compound: CN(C)C(=O)Cc1ccc(N2CCCN(c3ccnc4sc(C(N)=O)c(N)c34)CC2)cc1 [15w]
- IC50 (CDK8/19 [1]; HEK293 WT; 1 h pre-treatment, then 10 ng/mL TNFα 2 h; QPCR; read-out: IC50, CXCL1 mRNA expression, WT): 6.1 nM
- IC50 (CDK8/19 [1]; HEK293 WT; 1 h pre-treatment, then 10 ng/mL TNFα 2 h; QPCR; read-out: IC50, CXCL8 mRNA expression, WT): 5.5 nM
- IC50 (CDK8/19 [1]; HEK293 WT; 1 h pre-treatment, then 10 ng/mL TNFα 2 h; QPCR; read-out: IC50, MYC mRNA expression, WT): 4 nM

Compound: TNFα
- Basal STAT1 S727 phosphorylation in dKO cells, effect of cytokines [3]: increased

Compound: EGF: Recombinant human epidermal growth factor (NSDSECPLSHDGYCLHDGVCMYIEALDKYACNCVVGYIGERCQYRDLKWWELR; UniProt P01133 971-1023, looked up)
- Basal STAT1 S727 phosphorylation in dKO cells, effect of cytokines [3]: increased

Compound: COc1cc([C@@H]2c3cc4c(cc3[C@@H](O[C@@H]3O[C@@H]5CO[C@@H](C)O[C@H]5[C@H](O)[C@H]3O)[C@H]3COC(=O)[C@H]23)OCO4)cc(OC)c1O [etoposide]
- CDK8/19-independent STAT1 S727 phosphorylation in dKO 293 cells, effect of cytotoxic drugs [3]: increased

Compound: CN(C)C1CC23CCC4(O2)C(=CCC2(C)C(c5ccc6ccncc6c5)=CCC24)C=C3C(O)C1O (stereo not drawn) [dCA, 16-didehydro-cortistatin A]
- IC50 (CDK8/19 [1]; [11]): 1.3 nM
- IC50 (CDK8/19 [1]; [12]): 1.4 nM
- IC50 (CDK8/19 [1]; [13]): 1.5 nM
- IC50 (CDK19 [2]; [14]): 1.1 nM
- IC50 (CDK19 [2]; [15]): 0.8 nM
- IC50 (CDK19 [2]; IC50, MYC mRNA expression, 8KO): 0.6 nM
- Stability of CDK8/19 inhibition after wash-off (MYC, JUN, ADAMTS1 mRNA) (CDK8/19 [4]): by far the most stable
- IC50 (CDK8; IC50, CXCL1 mRNA expression, 19KO): 1.4 nM
- IC50 (CDK8; IC50, CXCL8 mRNA expression, 19KO): 1 nM
- IC50 (CDK8; IC50, MYC mRNA expression, 19KO): 0.5 nM
- Toxicity in zebrafish assays at higher concentrations [5]: moderate but significant toxicity

Compound: Cn1ncc2cc(-c3cnc(N)c(Cl)c3N3CCC4(CCNC4=O)CC3)ccc21 [Cmpd3]
- Toxicity in rats (rats): multiple and striking toxicities, including lethality
- Toxicity in dogs (dogs): multiple and striking toxicities, including lethality
- Formation of large vesicular structures inside cells (PIKFYVE [6]): caused the formation of large vesicular structures
- Kd (STK16): 420 nM
- IC50 (CDK8/19 [1]; [11]): 3.2 nM
- IC50 (CDK8/19 [1]; [12]): 3.3 nM
- IC50 (CDK8/19 [1]; [13]): 4.1 nM
- Kd (PIKFYVE [7]): 100 nM
- IC50 (CDK19 [2]; [14]): 3.1 nM
- IC50 (CDK19 [2]; [15]): 6.1 nM
- IC50 (CDK19 [2]; IC50, MYC mRNA expression, 8KO): 0.9 nM
- Total plasma concentration after 1 h [8]: 14.1 µM
- Total plasma concentration after 2 h [8]: 6.9 µM
- Total plasma concentration after 6 h [8]: 0.8 µM
- Kd (CDK19 [9]): 59 nM
- Kd (JNK1 (MAPK8)): 390 nM
- Toxicity in zebrafish assays at higher concentrations [5]: moderate but significant toxicity
- Weight loss in mice [10]: detectable weight loss

Compound: CC(=O)O[C@H]1C(=O)[C@@]2(C)[C@H]([C@H](OC(=O)c3ccccc3)[C@]3(O)C[C@H](OC(=O)[C@H](O)[C@@H](NC(=O)c4ccccc4)c4ccccc4)C(C)=C1C3(C)C)[C@]1(OC(C)=O)CO[C@@H]1C[C@@H]2O [Taxol]
- CDK8/19-independent STAT1 S727 phosphorylation in dKO 293 cells, effect of cytotoxic drugs [3]: increased
